Converted amounts (≈) assume the structure as drawn. Like-named read-outs stand apart in the source and are kept apart here.
Key:
[1] = Equilibrium saturated solubility in HFA-152a without cosolvent; format: physicochemical; details: organic solvent or mixture, thermodynamic from solid, no cosolvent
Experimental: In this Example, the equilibrium saturated solubility of Δ-9-THC and CBD individually in HFA-152a. was measured.
[…]. Each solution was covered with aluminum foil to prevent UV light from reaching the drug. A first set of solutions was then shaken at room temperature for 4 days. A second set of solutions was stored at 5° C. and manually shaken several times per day. After 4 days, each solution was filtered to remove undissolved CBD and/or Δ-9-THC, and the concentration of each cannabinoid was measured. Formulations were assessed for solubility at room temperature and at 5° C.

[2] = Equilibrium saturated solubility in HFA-134a (comparative); format: physicochemical; details: room temperature
Experimental: (§1) In this Example, the equilibrium saturated solubility of CBD or Δ-9-THC individually in HFA-227 and HFA-134a was measured.
(§2) […]. Each solution was shaken at room temperature for 4 days, after which each solution was filtered to remove undissolved CBD and/or Δ-9-THC, and the concentration of each cannabinoid was measured. The equilibrium saturated solubility of each cannabinoid in each propellant was measured at room temperature.

[3] = Equilibrium saturated solubility in HFA-227 (comparative); format: physicochemical; details: organic solvent or mixture, thermodynamic from solid, room temperature
Experimental: as §1, §2

[4] = for solubility at 14 days: organic solvent or mixture; for visual solubility: HFA-152a, after 14 days, ambient conditions or 5° C.

Compound | solubility at 4 days ([1]; 5° C.) [µg/mL] | solubility at 4 days ([1]; room temperature) [µg/mL] | solubility at 4 days ([2]; organic solvent or mixture, thermodynamic from solid) [µg/mL] | solubility at 4 days [3] [µg/mL] | solubility at 14 days ([4]; HFA-152a with 4%, […]) [µg/mL] | visual solubility ([4]; 4% ethanol by weight) | visual solubility ([4]; 5% ethanol by weight) | visual solubility ([4]; 6% ethanol by weight) | equilibrium saturated solubility in HFA-134a ([2]; 4 days) [µg/mL] | solubility at 14 days ([4]; HFA-152a with 1-3% ethanol by weight) [µg/mL] | visual solubility ([4]; 1% ethanol by weight) | visual solubility ([4]; 2% ethanol by weight) | visual solubility ([4]; 3% ethanol by weight)
CCCCCc1cc(O)c2c(c1)OC(C)(C)[C@@H]1CCC(C)=C[C@@H]21 [Δ-9-THC, (6aR,10aR)-6,6,9-trimethyl-3-pentyl-6a,7,8,10a-tetrahydro-6H-benzo[c]chromen-1-ol] | ≥ 21800 | ≥ 24700 | 2300 (≈ 7.31 mM) | 1500 (≈ 4.77 mM) | ≥ 15900 | Soluble | Soluble | Soluble | – | – | – | – | –
C=C(C)[C@@H]1CCC(C)=C[C@H]1c1c(O)cc(CCCCC)cc1O [CBD, 2-[(1R,6R)-6-Isopropenyl-3-methylcyclohex-2-en-1-yl]-5-pentylbenzene-1,3-diol] | ≥ 16400 | ≥ 15700 | – | 1800 (≈ 5.72 mM) | – | – | – | – | 2500 | ≥ 15900 | Soluble | soluble | soluble
